Source: publication PMC10095550, “Design, Synthesis and Biological Evaluation of 6-(Imidazo[1,2-a]pyridin-6-yl)quinazoline Derivatives as Anticancer Agents via PI3Kα Inhibition” (International Journal of Molecular Sciences, 2023)

Biological target: T1, PI3Kα (Homo sapiens, UniProt P42336)
T1 construct: gene PIK3CA
Test: ADP-Glo Max kinase assay
Assay type: biochemical

T1 sequence (P42336 whole entry): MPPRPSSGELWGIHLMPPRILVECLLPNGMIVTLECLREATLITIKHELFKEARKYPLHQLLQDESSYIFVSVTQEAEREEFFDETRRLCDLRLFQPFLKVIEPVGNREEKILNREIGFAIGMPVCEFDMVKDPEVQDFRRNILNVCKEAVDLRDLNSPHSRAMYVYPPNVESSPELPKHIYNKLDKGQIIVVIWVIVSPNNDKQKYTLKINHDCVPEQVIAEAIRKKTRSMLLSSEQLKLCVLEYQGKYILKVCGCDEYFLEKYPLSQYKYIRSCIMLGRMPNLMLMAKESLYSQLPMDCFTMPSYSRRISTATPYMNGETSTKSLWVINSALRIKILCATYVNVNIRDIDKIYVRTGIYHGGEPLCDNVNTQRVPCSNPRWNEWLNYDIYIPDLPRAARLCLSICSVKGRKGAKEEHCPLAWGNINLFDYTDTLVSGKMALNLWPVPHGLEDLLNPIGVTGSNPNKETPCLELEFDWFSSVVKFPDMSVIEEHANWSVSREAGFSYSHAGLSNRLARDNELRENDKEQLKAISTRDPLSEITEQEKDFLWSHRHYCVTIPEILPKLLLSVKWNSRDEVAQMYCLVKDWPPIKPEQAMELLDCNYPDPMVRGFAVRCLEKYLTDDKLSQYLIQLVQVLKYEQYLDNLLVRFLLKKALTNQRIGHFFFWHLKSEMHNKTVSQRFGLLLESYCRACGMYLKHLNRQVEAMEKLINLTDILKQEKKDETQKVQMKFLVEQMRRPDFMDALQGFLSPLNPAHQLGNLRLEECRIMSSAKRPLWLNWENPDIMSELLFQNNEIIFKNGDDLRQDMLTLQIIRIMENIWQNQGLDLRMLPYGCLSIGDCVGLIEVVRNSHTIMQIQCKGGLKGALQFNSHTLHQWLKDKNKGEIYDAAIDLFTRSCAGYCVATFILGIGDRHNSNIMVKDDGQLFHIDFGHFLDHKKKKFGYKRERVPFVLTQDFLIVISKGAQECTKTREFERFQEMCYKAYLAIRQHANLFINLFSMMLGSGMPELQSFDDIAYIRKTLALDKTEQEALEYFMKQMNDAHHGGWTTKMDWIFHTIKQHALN

- IC50: 1.94 ± 0.66 nM
Compound: c1ccc(-c2cn3cc(-c4ccc5ncnc(NCC6CCOCC6)c5c4)ccc3n2)cc1 [13k, 6-(2-phenylimidazo[1,2-a]pyridin-6-yl)-N-((tetrahydro-2H-pyran-4-yl)methyl)quinazolin-4-amine]
